Data taken from patent US7307062B2, “Method for treating a mental disorder” (priority 2003, dated 2007).
Entries after “also recorded” stand apart in the source; their conditions may differ. Values belong to the molecule of their own block, whether it stands above or below them.

Key:
[1] = tested on: child with autistic disorder; assay: Case history five (autistic disorder); type: in vivo, human
[2] = tested on: child with autistic disorder; assay: Case history CM (autistic disorder); type: in vivo, human; conditions: clarithromycin
Text: […] They remained hospitalized for 80 days and suffered from significant medical complications due to their premature birth. […] They have severe delays in fine and gross motor skills. Also, severe delays in receptive and expressive language, consistent with their premature birth. […] […] […] Specific behaviors include irritability and temper tantrums, odd meaningless movements, and odd meaningless vocalizations. […] In spite of the placement of tympanostomy tubes […], […] continued to develop recurrent and persistent otis media untila second set of tubes were inserted approximately six months later. […] Head banging and tantrums stopped.

[3] = tested on: person with psychiatric symptoms; assay: Case study four (major depressive disorder, obsessive compulsive disorder, atypical psychosis, Crohn's disease); type: in vivo, human
Text: patient four was a person whose symptoms were consistent with major depressive disorder, obsessive compulsive disorder, and atypical psychosis. Standard anti-psychotic medications were unsuccessful in treating the symptoms. The person also had severe gastrointestinal symptoms and was subsequently diagnosed with Crohn's disease. The person began treatment with prednisone and mesalamine, a standard therapy for Crohn's disease. […] Behavior problems were absent. […] A few months thereafter, the person experienced an acute psychiatric relapse and was admitted to the hospital. A colonoscopy confirmed active lesions in the right colon consistent with Crohn's disease. Treatment with prednisone and mesalamine was initiated for their Crohn's disease, with the prednisone later tapered to 20 mg/day after several months. […] the person was able to return to high school and completed their junior year with high honors.

[4] = tested on: child with Childhood Disintegrative Disorder; assay: Case history two (childhood disintegrative disorder), metronidazole therapy; type: in vivo, human
[5] = tested on: child with autistic disorder; assay: Case study one (autistic disorder), successive antimicrobial and probiotic treatments
[6] = tested on: adolescent with ADHD, bipolar and conduct disorder; assay: Case study three (ADHD, major depressive disorder, bipolar)
[7] = tested on: children with regressive onset autism; assay: Open-label trial of oral vancomycin in children with regressive-onset autism
children with autism = assay: Vancomycin and retreatment followed by probiotic fecal enema in children with autism lacking peptostreptococcal species; conditions: four children with autism
[8] = metronidazole standard dosage for 17 days
[9] = Wilcoxon Signed Ranks Z=−2.9, p=0.003, baseline vs during therapy
[10] = vancomycin 500 mg/day orally, of ten children studied

Structure (SMILES): COCC1=C(C(=O)OC(C)OC(=O)OC(C)C)N2C(=O)[C@@H](NC(=O)/C(=N\OC)c3csc(N)n3)[C@H]2SC1 (stereo partly drawn) [cefpodoxime proxetil]
behavior as soon as antibiotics were finished ([1]; in vivo): became more hyper, more easily aggitated, and more aggressive | autistic symptoms while taking the antimicrobial ([1]; prescribed for ear infection, calmness, improved sleep patterns, more signs for communication): positive improvement in their autistic symptoms

Structure (SMILES): CC[C@H]1OC(=O)[C@H](C)[C@@H](O[C@H]2C[C@@](C)(OC)[C@@H](O)[C@H](C)O2)[C@H](C)[C@@H](O[C@@H]2O[C@H](C)C[C@H](N(C)C)[C@H]2O)[C@](C)(OC)C[C@@H](C)C(=O)[C@H](C)[C@@H](O)[C@]1(C)O [clarithromycin]
behavior, parental report [2]: became more cooperative and was much calmer | head banging and tantrums, parental report [2]: stopped

behavior during first week of treatment ([6]; metronidazole 500 mg b.i.d.): highly agitated
Structure (SMILES): Cc1ncc([N+](=O)[O-])n1CCO [metronidazole]
time of first deterioration in behavior ([3]; after first metronidazole course): two months following the discontinuance | clinical response, first course ([3]; metronidazole 250 mg t.i.d. six weeks, with prednisone and mesalamine): rapid improvement in attitude, mood and rebounded academically | clinical response, second course ([3]; metronidazole 500 mg t.i.d. for 30 days, within three weeks): dramatic improvement in their psychiatric symptoms | Social behavior, After Metronidazole ([4]; after discontinuation, on Lactobacillus Acidophilus GG): Reverted to baseline | Attitude/State of Mind, After Metronidazole ([4]; after discontinuation, on Lactobacillus Acidophilus GG 20 billion cells per day): Reverted to baseline | Speech, After Metronidazole ([4]; after discontinuation, on Lactobacillus Acidophilus GG, logic and coherence of speech): Initially regressed, | Ability: Physical or Mental, After Metronidazole ([4]; after discontinuation, on Lactobacillus Acidophilus GG, sleep): Remained somewhat | Speech, After Metronidazole ([4]; after discontinuation, on Lactobacillus Acidophilus GG, voice quality): Reverted to baseline | Ability: Physical or Mental, During Metronidazole [4, 8]: Fell asleep quickly | Attitude/State of Mind, During Metronidazole [4, 8]: Aware of surroundings; also recorded: Relaxed and calm; also recorded: Happy, pleasant | Social behavior, During Metronidazole ([4]; metronidazole standard dosage for 17 days, aggression towards little brother): No aggression towards | Speech, During Metronidazole ([4]; metronidazole standard dosage for 17 days, logic and coherence of speech): Speech on topic, more | Social behavior, During Metronidazole ([4]; metronidazole standard dosage for 17 days, peer interaction and play skills): Marked improvement in | Speech, During Metronidazole ([4]; metronidazole standard dosage for 17 days, social communication): Initiated and | Speech, During Metronidazole ([4]; metronidazole standard dosage for 17 days, voice quality): Voice normal, natural, | positive gains after discontinuation ([4]; within a week after the discontinuation of metronidazole): began to deteriorate | aggressive and hyperactive behaviors ([5]; metronidazole 250 mg t.i.d. for 21 days, end of treatment): substantially reduced | rating of behavior problems previously severe in degree ([6]; after two months of metronidazole treatment): slight in degree or completely resolved | behavior after discontinuation ([6]; two weeks after metronidazole therapy was discontinued): behavior deteriorated

Structure (SMILES): CN[C@H](CC(C)C)C(=O)N[C@H]1C(=O)N[C@@H](CC(N)=O)C(=O)N[C@H]2C(=O)N[C@H]3C(=O)N[C@H](C(=O)N[C@H](C(=O)O)c4cc(O)cc(O)c4-c4cc3ccc4O)[C@H](O)c3ccc(c(Cl)c3)Oc3cc2cc(c3O[C@@H]2O[C@H](CO)[C@@H](O)[C@H](O)[C@H]2O[C@H]2C[C@](C)(N)[C@H](O)[C@H](C)O2)Oc2ccc(cc2Cl)[C@H]1O [vancomycin]
behavior, unblinded analog rating scale, group as a whole [7, 9]: improvement | communication, unblinded analog rating scale, group as a whole [7, 9]: improvement | subjects with a day of marked lethargy ([7]; after the hyperactivity period): One | basic blood, stool, and urine tests; physical examinations ([7]; baseline and throughout the study, all children): unremarkable | analog ratings at long-term follow-up ([7]; two to eight months after discontinuance, in all but one child): returned towards baseline | children with improvement during therapy, blinded assessment of coded, paired videotapes ([7]; vancomycin 500 mg/day orally for eight weeks, ten of eleven children scored by blinded psychologist): 8 of 10 and eight of ten | children with no change, blinded assessment of coded, paired videotapes [7, 10]: one | children with possible deterioration, blinded assessment of coded, paired videotapes [7, 10]: one | duration of period of hyperactivity ([7]; within three days of initiating antibiotic treatment): 1 to 4 days | children with a brief period of hyperactivity ([7]; within three days of initiating antibiotic treatment, eleven children): six | duration of hyperactivity pattern ([5]; emerged three days after initiation of vancomycin): four | duration of lethargy ([5]; following hyperactivity pattern on vancomycin): two | behavior after vancomycin discontinuation ([5]; shortly after discontinuation, while taking probiotic agents): behavioral deterioration was observed | clinical response ([5]; vancomycin 125 mg q.i.d., 12-week trial): rapid and dramatic clinical improvement | composite score, Vineland Adaptive Behavior Scales ([5]; vancomycin 125 mg q.i.d., after 8 weeks): 19 months | increase of composite score, Vineland Adaptive Behavior Scales ([5]; vancomycin 125 mg q.i.d., first 8 weeks of treatment, baseline 11 months): 8 months | relapse after discontinuance of antimicrobial therapy (children with autism): relapsed within two weeks | response to treatment (children with autism; complete absence of peptostreptococcal species in stool): responded favorably
